According to patent US6500466B2, “Chlorhexidine formulations, new chlorhexidine salts, solutions containing these and their use” (Degussa AG, priority 1998, dated 2002):

Tests used:
[1] = Light sensitivity and stability compared with the gluconate; assay type: physicochemical
[2] = Storage trials: production of p-chloroaniline in aqueous 20 wt. % solutions and in powdered mixtures (FIG. 1, FIG. 2); assay type: physicochemical; details: aqueous solution stored at constant 40° C.
Source text: The composition and appearance of gluconate solutions are subject to the requirements of the European Pharmacopoeia and the American Pharmacopoeia. One of the purity requirements is a concentration of p-chloroaniline limited to 500 ppm. In a reaction which is the reverse of forming the chlorhexidine base from hexamethylenebicyanoguanidine and p-chloroaniline, p-chloroaniline can be reversibly eliminated from these solutions on dissolving the base in D(+) glucono-6-lactone, the internal ester of D(+)-gluconic acid, wherein the solutions discolor and become increasingly yellow to brown. Decomposition of chlorhexidine solutions depends on the pH of the solution and in particular on the storage temperature. Tests show (FIG. 1), that the permissible p-chloroaniline values are exceeded after about one month when stored at a constant temperature of 40° C. Solutions of CHD-gluconate which are stable over the long-term have not hitherto been disclosed. The use of these solutions in regions with a tropical climate is therefore a problem which has not hitherto been resolved satisfactorily. Therefore, there is a need for chlorhexidine salt solutions which tend to decompose to only a small extent when used under extreme climatic conditions, in particular at high temperatures.
The problem of long-term p-chloroaniline production cannot be solved by the invention of new anions. […]

[3] = background statement; cited from earlier work

For chlorhexidine ascorbate, the “light sensitivity relative to the gluconate” value [1] was “more light sensitive” and the “stability relative to the gluconate” value [1] was “more unstable than the gluconate”.
For `N=C(NCCCCCCNC(=N)NC(=N)Nc1ccc(Cl)cc1)NC(=N)Nc1ccc(Cl)cc1.O=C(O)[C@H](O)[C@@H](O)[C@H](O)[C@H](O)CO.O=C(O)[C@H](O)[C@@H](O)[C@H](O)[C@H](O)CO` [Chlorhexidine digluconate], the “time after which permissible p-chloroaniline values (500 ppm) are exceeded” value [2] was “about one”.
In the case of `[H]/N=C(\N/C(=N/[H])NCCCCCCNC(=N)NC(=N)Nc1ccc(Cl)cc1)Nc1ccc(Cl)cc1` [Chlorhexidine, 1,1′-hexamethylene-bis-[5,4-chlorophenyl]-biguanide], the solubility in water [3] is listed as “very low solubility in water”.
